Laboratory results reported in PubChem BioAssay (NCI).
Several values for one entry are separate records, joined by “and”; a condition that tells them apart may be missing. Equal values may be shown once.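 Five compound concentrations were applied to cells in 96-well plates for 48 hours; endpoints were derived by simple linear interpolation of the resulting dose-response curve. GI50 = concentration required for 50% inhibition of growth. TGI denotes the concentration required for complete inhibition of growth.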

Tests used:
Assay in all cases: NCI-60 cell line screen, 48 h
TK-10 renal = tested on: TK-10 renal
DMS 114 small cell lung = tested on: DMS 114 small cell lung
HCC-2998 colon = tested on: HCC-2998 colon
RXF 393 renal = tested on: RXF 393 renal
SR leukemia = tested on: SR leukemia
UO-31 renal = tested on: UO-31 renal
DLD-1 colon = tested on: DLD-1 colon
KM12 colon = tested on: KM12 colon
LOX IMVI melanoma = tested on: LOX IMVI melanoma
U251 CNS = tested on: U251 CNS

Compound	TGI (TK-10 renal)	TGI (DMS 114 small cell lung) [µM]	TGI (HCC-2998 colon)	TGI (RXF 393 renal)	TGI (SR leukemia)	TGI (UO-31 renal)	TGI (DLD-1 colon) [µM]	TGI (KM12 colon)	TGI (LOX IMVI melanoma)	TGI (U251 CNS)	GI50 (TK-10 renal)	GI50 (HCC-2998 colon)	GI50 (RXF 393 renal)	GI50 (SR leukemia)	GI50 (UO-31 renal) [µM]	GI50 (KM12 colon) [µM]	GI50 (LOX IMVI melanoma) [µM]	GI50 (U251 CNS) [µM]
CCOc1ccc(N=Nc2c(-c3ccccc3)nn(C(=O)CC(=O)Nc3cccc(C)c3)c2-c2ccccc2)cc1	> 100 µM	> 100	> 100 µM	> 100 µM	> 100 µM	> 100 µM	> 100	> 100 µM	> 100 µM	> 100 µM	–	–	–	–	–	–	–	–
CNC(=O)OCc1cc2ccncc2c2c1[nH]c1ccccc12	> 100 µM	> 100	> 100 µM	8.39 µM	> 33.2 µM	> 100 µM	> 100	> 100 µM	> 100 µM	> 100 µM	–	–	–	–	–	–	–	–
CN1CCN(CCCN2c3ccccc3Sc3ccc(C(F)(F)F)cc32)CC1	3.23 µM and 12.1 µM and 24.8 µM	23.4	3.02 µM and 3.21 µM and 8.68 µM	4.62 µM and 23.1 µM and 15.5 µM	7.95 µM and > 20.4 µM and 27.2 µM	12 µM and 19.3 µM and 17.6 µM	26.9	3.48 µM and 10.7 µM and 11.4 µM	3.28 µM and 8.79 µM and 11.2 µM	3.56 µM and 18.1 µM and 21.4 µM	1.78 µM and 4.01 µM and 11.6 µM	1.42 µM and 1.64 µM and 3.82 µM	1.78 µM and 10 µM and 4.08 µM	2.72 µM and 2.09 µM and 8.62 µM	2.31	1.85	1.59	1.7
CCOC(=O)NN(C(=O)OCC)C(C(=O)c1ccc(Cl)cc1)=C1NCCN1	> 100 µM	> 100	> 100 µM	> 100 µM	> 100 µM	> 100 µM	> 100	> 100 µM	> 100 µM	> 100 µM	–	–	–	–	–	–	–	–
C=C(CN(C)C)C(=O)c1ccc(OC)cc1	7.88 µM	8.38	22.4 µM	24.9 µM	5.27 µM	7.92 µM	2.03	39.4 µM	25.4 µM	28.8 µM	–	–	–	–	–	–	–	–
CCN1C(=O)C(N=[N+]=[N-])(c2ccccc2)C(=O)c2ccccc21 (stereo not drawn)	> 100 µM	> 100	> 100 µM	> 100 µM	> 100 µM	> 100 µM	> 100	> 100 µM	> 100 µM	> 100 µM	–	–	–	–	–	–	–	–
O=C1C2C3CCC(C2C(=O)N1CO)C1C2C(=O)N(CO)C(=O)C2C31 (stereo not drawn)	> 100 µM	> 59.5	> 100 µM	> 68.6 µM	36.7 µM	> 100 µM	> 65.6	> 100 µM	> 61.9 µM	> 56.2 µM	–	–	–	–	–	–	–	–
COc1ccc(NC(=O)CC(=O)n2nc(-c3ccccc3)c(N=Nc3ccccc3C)c2-c2ccccc2)cc1	47.2 µM	49.7	> 100 µM	33.4 µM	> 100 µM	> 92 µM	82.5	> 100 µM	> 100 µM	35.3 µM	–	–	–	–	–	–	–	–
O=C(CC(=O)c1cccc([N+](=O)[O-])c1)C(=O)Nc1nc([N+](=O)[O-])cs1	> 100 µM	> 100	> 100 µM	> 100 µM	> 100 µM	> 100 µM	> 100	> 100 µM	> 100 µM	> 100 µM	–	–	–	–	–	–	–	–
NC(=O)OCC(COc1ccc(Cl)cc1)OC(=O)c1cc([N+](=O)[O-])cc([N+](=O)[O-])c1 (stereo not drawn)	> 100 µM	53.8	> 100 µM	> 100 µM	> 100 µM	> 100 µM	> 100	> 100 µM	34.4 µM	> 100 µM	–	–	–	–	–	–	–	–
COc1cc2c(cc1OC)C1(c3ccccc3)ON=C(c3ccccc3)N1CS2 (stereo not drawn)	> 100 µM	> 100	> 100 µM	> 100 µM	> 100 µM	> 100 µM	> 100	> 100 µM	> 100 µM	> 100 µM	–	–	–	–	–	–	–	–
